Laboratory results reported in the supplement of paper PMC10627819.

Tests used:
Assay in all cases: Bliss interaction score (quartile over a dose matrix) (fitness difference); higher = more antagonism (negative = synergy)
[1] = system: B. subtilis 168
How it was run: (§1)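 Fitness was derived from optical density at entry into stationary phase, divided by the robust mean of the no-drug wells on the same plate. That reading was taken as OD595, and the ratio was capped at 1. Single-drug fitness was inferred from the combination data. The Bliss score, observed fitness minus the expected product of single-drug fitness, was summarised as quartiles over technical, biological and donor/recipient replicates.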

[2] = system: S. pneumoniae D39V
How it was run: as §1

[3] = system: S. aureus DSM 20231
How it was run: as §1

[4] = system: S. aureus Newman
How it was run: as §1
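Further: first quartile when negative (synergy) and third quartile when positive (antagonism).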

Compound	Bliss interaction score [1]	Bliss interaction score [2]	Bliss interaction score [3]	Bliss interaction score [4]	Bliss interaction score ([1]; main component drawn)	Bliss interaction score ([2]; main component drawn)	Bliss interaction score ([3]; main component drawn)	Bliss interaction score ([4]; main component drawn)
N#CC(C#N)=NNc1cccc(Cl)c1 [CCCP] + CO[C@@H]1[C@@H](OC(N)=O)[C@@H](O)[C@H](Oc2ccc3c(O)c(NC(=O)c4ccc(O)c(CC=C(C)C)c4)c(=O)oc3c2C)OC1(C)C [Novobiocin]	-0.144	0.164	0.0738	0.0377				
CC(=O)Oc1ccccc1C(=O)O [Acetylsalicylicacid] + O=C(N[C@H](CO)[C@H](O)c1ccc([N+](=O)[O-])cc1)C(Cl)Cl [Chloramphenicol]	0.0772	0.115	-0.0904	0.0794				
CC(=O)Oc1ccccc1C(=O)O [Acetylsalicylicacid] + C[n+]1ccc(-c2cc[n+](C)cc2)cc1 [Paraquat]	0.067	-0.0664	0.067	0.0558				
CN(C)[C@@H]1C(O)=C(C(N)=O)C(=O)[C@@]2(O)C(O)=C3C(=O)c4c(O)ccc(Cl)c4[C@@](C)(O)[C@H]3C[C@@H]12 [Clortetracycline] + CO[C@H]1/C=C/O[C@@]2(C)Oc3c(C)c(O)c4c(O)c(c(/C=N/N5CCN(C)CC5)c(O)c4c3C2=O)NC(=O)/C(C)=C\C=C\[C@H](C)[C@H](O)[C@@H](C)[C@@H](O)[C@@H](C)[C@H](OC(C)=O)[C@@H]1C [Rifampicin]	-0.26	0.0664	-0.0529	0.0541				
CC1(C)S[C@@H]2[C@H](NC(=O)Cc3ccccc3)C(=O)N2[C@H]1C(=O)O [PenicillinG] + C/C(=C\C(=O)OCCCCCCCCC(=O)O)C[C@@H]1OC[C@H](C[C@@H]2O[C@H]2[C@@H](C)[C@H](C)O)[C@@H](O)[C@H]1O [Pseudomonic acid]	0.0659	0.0842	0.0362	0.0196				
CC(=O)Oc1ccccc1C(=O)O [Acetylsalicylicacid] + CCN(CC)CCOC(=O)c1ccc(N)cc1 [Procaine]	0.0531	0.0662	0.0998	-0.0687				
N#CC(C#N)=NNc1cccc(Cl)c1 [CCCP] + CC(=O)NC[C@H]1CN(c2ccc(N3CCOCC3)c(F)c2)C(=O)O1 [Linezolid]	0.0322	0.0853	-0.0274	0.0931				
CC(=O)Oc1ccccc1C(=O)O [Acetylsalicylicacid] + COc1c(N2C[C@@H]3CCCN[C@@H]3C2)c(F)cc2c(=O)c(C(=O)O)cn(C3CC3)c12 [Moxifloxacin]	-0.0213	0.0628	0.114	0.114				
Cc1ncc([N+](=O)[O-])n1CCO [Metronidazole] + Oc1cc(Cl)ccc1Oc1ccc(Cl)cc1Cl [Triclosan]	0.0396	0.0696	0.0778	0.0457				
N#CC(C#N)=NNc1cccc(Cl)c1 [CCCP] + C[C@H]1c2cccc(O)c2C(=O)C2=C(O)[C@]3(O)C(=O)C(C(N)=O)=C(O)[C@@H](N(C)C)[C@@H]3[C@@H](O)[C@@H]21 [Doxycycline]	-0.0353	0.047	-0.0215	0.0768				
N#CC(C#N)=NNc1cccc(Cl)c1 [CCCP] + Clc1ccc(COC(Cn2ccnc2)c2ccc(Cl)cc2Cl)c(Cl)c1 [Miconazole]	0.0582	-0.0431	-0.0382	-0.0554				
CC(=O)Oc1ccccc1C(=O)O [Acetylsalicylicacid] + COc1cccc2c1C(=O)c1c(O)c3c(c(O)c1C2=O)C[C@@](O)(C(=O)CO)C[C@@H]3O[C@H]1C[C@H](N)[C@H](O)[C@H](C)O1 [Doxorubicin]	0.225	0.0551	0.0666	0.0561				
CC(=O)Oc1ccccc1C(=O)O [Acetylsalicylicacid] + CC(=O)NC[C@H]1CN(c2ccc(N3CCOCC3)c(F)c2)C(=O)O1 [Linezolid]	0.0401	0.145	-0.0728	0.0639				
N#CC(C#N)=NNc1cccc(Cl)c1 [CCCP] + Cc1onc(-c2ccccc2)c1C(=O)N[C@@H]1C(=O)N2[C@@H]1SC(C)(C)[C@@H]2C(=O)O [Oxacillin]	0.0476	0.12	0.0876	-0.0755				
CC(=O)Oc1ccccc1C(=O)O [Acetylsalicylicacid] + COc1cc(Cc2cnc(N)nc2N)cc(OC)c1OC [Trimethoprim]	0.123	-0.163	-0.0672	0.0981				
Cc1ncc([N+](=O)[O-])n1CCO [Metronidazole] + CC[C@H]1OC(=O)[C@H](C)C(=O)[C@H](C)[C@@H](O[C@@H]2O[C@H](C)C[C@H](N(C)C)[C@H]2O)[C@](C)(OC)C[C@@H](C)C(=O)[C@H](C)[C@H]2N(CCCCn3cnc(-c4cccnc4)c3)C(=O)O[C@]12C [Telithromycin]	0.0709	0.157	0.0599	0.0357				
CN(C)[C@@H]1C(O)=C(C(N)=O)C(=O)[C@@]2(O)C(O)=C3C(=O)c4c(O)ccc(Cl)c4[C@@](C)(O)[C@H]3C[C@@H]12 [Clortetracycline] + CN[C@H](CC(C)C)C(=O)N[C@H]1C(=O)N[C@@H](CC(N)=O)C(=O)N[C@H]2C(=O)N[C@H]3C(=O)N[C@H](C(=O)N[C@H](C(=O)O)c4cc(O)cc(O)c4-c4cc3ccc4O)[C@H](O)c3ccc(c(Cl)c3)Oc3cc2cc(c3O[C@@H]2O[C@H](CO)[C@@H](O)[C@H](O)[C@H]2O[C@H]2C[C@](C)(N)[C@H](O)[C@H](C)O2)Oc2ccc(cc2Cl)[C@H]1O [Vancomycin]	-0.0454	0.0542	-0.0315	0.0562				

Compound	Bliss interaction score [1]	Bliss interaction score [2]	Bliss interaction score [3]	Bliss interaction score [4]	Bliss interaction score ([1]; main component drawn)	Bliss interaction score ([2]; main component drawn)	Bliss interaction score ([3]; main component drawn)	Bliss interaction score ([4]; main component drawn)
N#CC(C#N)=NNc1cccc(Cl)c1 [CCCP] + CN[C@@H]1[C@H](O)[C@H](NC)[C@H]2O[C@@]3(O)C(=O)C[C@@H](C)O[C@H]3O[C@@H]2[C@H]1O [Spectinomycin]	0.0317	0.0475	0.0771	-0.0505				
C[C@H]1c2cccc(O)c2C(=O)C2=C(O)[C@]3(O)C(=O)C(C(N)=O)=C(O)[C@@H](N(C)C)[C@@H]3[C@@H](O)[C@@H]21 [Doxycycline] + CC[C@H]1OC(=O)[C@H](C)[C@@H](O[C@H]2C[C@@](C)(OC)[C@@H](O)[C@H](C)O2)[C@H](C)[C@@H](O[C@@H]2O[C@H](C)C[C@H](N(C)C)[C@H]2O)[C@](C)(O)C[C@@H](C)C(=O)[C@H](C)[C@@H](O)[C@]1(C)O [Erythromycin]	-0.162	-0.161	-0.0389	-0.0251				
O=C(O)c1cn(C2CC2)c2cc(N3CCNCC3)c(F)cc2c1=O [Ciprofloxacin] + CC(=O)O[C@H]1C[C@@]2(C)[C@@H](C[C@@H](O)[C@H]3[C@@]4(C)CC[C@@H](O)[C@@H](C)[C@@H]4CC[C@@]32C)/C1=C(\CCC=C(C)C)C(=O)O [Fusidic acid]	0.19	0.0674	0.04	0.0831				
N#CC(C#N)=NNc1cccc(Cl)c1 [CCCP] + CN[C@@H]1[C@H](O[C@H]2[C@H](O[C@H]3[C@H](O)[C@@H](O)[C@H](N=C(N)N)[C@@H](O)[C@@H]3N=C(N)N)O[C@@H](C)[C@]2(O)C=O)O[C@@H](CO)[C@H](O)[C@H]1O [Streptomycin]	0.48	0.0786	0.0501	0.0563				
CN(C)[C@@H]1C(O)=C(C(N)=O)C(=O)[C@@]2(O)C(O)=C3C(=O)c4c(O)ccc(Cl)c4[C@@](C)(O)[C@H]3C[C@@H]12 [Clortetracycline] + C[C@@H]1O[C@@H]1P(=O)(O)O [Fosfomycin]	0.0913	0.0517	-0.158	-0.161				
CC(=O)Oc1ccccc1C(=O)O [Acetylsalicylicacid] + N[C@@H]1CONC1=O [CycloserineD]	0.221	0.146	0.0689	-0.115				
N#CC(C#N)=NNc1cccc(Cl)c1 [CCCP] + CC[C@H]1OC(=O)[C@H](C)[C@@H](O[C@H]2C[C@@](C)(OC)[C@@H](O)[C@H](C)O2)[C@H](C)[C@@H](O[C@@H]2O[C@H](C)C[C@H](N(C)C)[C@H]2O)[C@](C)(O)C[C@@H](C)C(=O)[C@H](C)[C@@H](O)[C@]1(C)O [Erythromycin]	-0.0587	-0.0863	0.023	0.0472				
CO/N=C(\C(=O)N[C@@H]1C(=O)N2C(C(=O)O)=C(COC(N)=O)CS[C@H]12)c1ccco1 [Cefuroxime] + CC(=O)O[C@H]1C[C@@]2(C)[C@@H](C[C@@H](O)[C@H]3[C@@]4(C)CC[C@@H](O)[C@@H](C)[C@@H]4CC[C@@]32C)/C1=C(\CCC=C(C)C)C(=O)O [Fusidic acid]	0.137	0.0348	-0.281	0.104				
CN(C)[C@@H]1C(O)=C(C(N)=O)C(=O)[C@@]2(O)C(O)=C3C(=O)c4c(O)ccc(Cl)c4[C@@](C)(O)[C@H]3C[C@@H]12 [Clortetracycline] + CCC[C@@H]1C[C@@H](C(=O)N[C@@H]([C@H]2O[C@H](SC)[C@H](O)[C@@H](O)[C@H]2O)[C@@H](C)O)N(C)C1 [Lincomycin]	0.103	0.036	-0.171	-0.144				
CC(=O)Oc1ccccc1C(=O)O [Acetylsalicylicacid] + C[C@H]1COc2c(N3CCN(C)CC3)c(F)cc3c(=O)c(C(=O)O)cn1c23 [Levofloxacin]	0.12	0.142	0.0854	0.12				
CN(C)[C@@H]1C(O)=C(C(N)=O)C(=O)[C@@]2(O)C(O)=C3C(=O)c4c(O)ccc(Cl)c4[C@@](C)(O)[C@H]3C[C@@H]12 [Clortetracycline] + CCC(C)C1C(=O)NC(=C)C(=O)NC(C(=O)NC(CSCC(C(=O)N1)NC(=O)/C(=C/C)/NC(=O)C(C(C)CC)N)C(=O)NC2C(SCC(NC(=O)CNC(=O)C3CCCN3C2=O)C(=O)NC(CCCCN)C(=O)NC4C(SCC(NC(=O)CNC(=O)C(NC(=O)C(NC(=O)C(NC(=O)CNC4=O)C)CC(C)C)CCSC)C(=O)NC(CC(=O)N)C(=O)NC(CCSC)C(=O)NC(CCCCN)C(=O)NC5C(SCC6C(=O)NC(C(=O)NC(CSC(C(C(=O)N6)NC(=O)C(NC5=O)C)C)C(=O)NC(CO)C(=O)NC(C(C)CC)C(=O)NC(CC7=CN=CN7)C(=O)NC(C(C)C)C(=O)NC(=C)C(=O)NC(CCCCN)C(=O)O)CC8=CN=CN8)C)C)C)CC(C)C [Nisin]					0.0718	-0.122	0.0616	0.0486
N#CC(C#N)=NNc1cccc(Cl)c1 [CCCP] + C[n+]1ccc(-c2cc[n+](C)cc2)cc1 [Paraquat]	0.0508	0.0866	-0.0508	-0.0253				
CO/N=C(\C(=O)N[C@@H]1C(=O)N2C(C(=O)O)=C(COC(N)=O)CS[C@H]12)c1ccco1 [Cefuroxime] + CO[C@@]12[C@H](COC(N)=O)C3=C(C(=O)C(C)=C(N)C3=O)N1C[C@@H]1N[C@@H]12 [MitomycinC]	-0.211	0.0599	-0.0745	-0.0903				
CO/N=C(\C(=O)N[C@@H]1C(=O)N2C(C(=O)O)=C(COC(N)=O)CS[C@H]12)c1ccco1 [Cefuroxime] + O=C(N[C@H](CO)[C@H](O)c1ccc([N+](=O)[O-])cc1)C(Cl)Cl [Chloramphenicol]	0.162	-0.0245	-0.341	-0.0407				
C[C@@H]1O[C@@H]1P(=O)(O)O [Fosfomycin] + CO[C@@]12[C@H](COC(N)=O)C3=C(C(=O)C(C)=C(N)C3=O)N1C[C@@H]1N[C@@H]12 [MitomycinC]	-0.116	0.117	0.0499	-0.095				
CC(=O)Oc1ccccc1C(=O)O [Acetylsalicylicacid] + CCC(C)C1C(=O)NC(=C)C(=O)NC(C(=O)NC(CSCC(C(=O)N1)NC(=O)/C(=C/C)/NC(=O)C(C(C)CC)N)C(=O)NC2C(SCC(NC(=O)CNC(=O)C3CCCN3C2=O)C(=O)NC(CCCCN)C(=O)NC4C(SCC(NC(=O)CNC(=O)C(NC(=O)C(NC(=O)C(NC(=O)CNC4=O)C)CC(C)C)CCSC)C(=O)NC(CC(=O)N)C(=O)NC(CCSC)C(=O)NC(CCCCN)C(=O)NC5C(SCC6C(=O)NC(C(=O)NC(CSC(C(C(=O)N6)NC(=O)C(NC5=O)C)C)C(=O)NC(CO)C(=O)NC(C(C)CC)C(=O)NC(CC7=CN=CN7)C(=O)NC(C(C)C)C(=O)NC(=C)C(=O)NC(CCCCN)C(=O)O)CC8=CN=CN8)C)C)C)CC(C)C [Nisin]					-0.0969	-0.0424	-0.113	-0.0598
